Test [1] addresses T1, ABL1 (Homo sapiens, UniProt P00519).
T1 construct: endogenous in cells; host or cells: THP-1
Nature of the test: Expression proteomics in THP-1 cells: ABL1 protein level. Conditions: ABL1, THP-1 cells. It counts as cell-based. The method, then: (§1) THP-1 cells were seeded at a concentration of 3×10^6 cells in T175 flasks with 60 mL growth medium (RPMI1640+10% FBS). […] of a 10× compound solution prepared in growth medium (DMSO), CEREBLON_PROTAC) was added and the cells were treated for the indicated time points (6 or 24 h) at 37° C., 5% CO2. For harvesting the cells were collected into falcon tubes on ice, centrifuged and washed twice in cold PBS (Life technologies). After the last washing step the supernatant was removed and the pellets were snap-frozen in liquid N2 and stored at −80° C. and lysed in 2% SDS for 3 min at 95° C. in a thermomixer (Thermo Fisher Scientific), followed by digestion of DNA with Benzonase at 37° C. for 1.5 h. Lysate was cleared by centrifugation an protein concentration in supernatant was determined by BCA assay.
(§2) Leukemia 25, 89-100 (2011).
(§3) Samples were dried in vacuo and resuspended in 0.05% trifluoroacetic acid in water. Of the sample, 50% was injected into an Ultimate3000 nanoRLSC (Dionex, Sunnyvale, Calif.) coupled to a Q Exactive HF (Thermo Fisher Scientific). Peptides were trapped on a 5 mm×300 μm C18 column (Pepmap100, 5 μm, 300 Å, Thermo Fisher Scientific) in water with 0.05% TFA at 60° C. Separation was performed on custom 50 cm×[…] (ID) reversed-phase columns (Reprosil) at 55° C. Gradient elution was performed from 2% acetonitrile to 40% acetonitrile in 0.1% formic acid and 3.5% DMSO over 2 hours. Samples were online injected into Q-Exactive HF mass spectrometers operating with a data-dependent top 10 method. MS spectra were acquired by using 60.000 resolution and an ion target of 3×10^6. Higher energy collisional dissociation (HCD) scans were performed with 35% NCE at 30.000 resolution (at m/z 200), and the ion target settings was set to 2×10^5 so as to avoid coalescence (Werner, T. et al. Ion Coalescence of Neutron Encoded TMT 10-Plex Reporter Ions. Anal. Chem. 86, 3594-3601 (2014).
(§4) The first search was performed with 30 parts per million mass tolerance for peptide precursors and 30 mD (HCD) mass tolerance for fragment ions followed by a final search using recalibrated data with a 10 parts per million mass tolerance for peptide precursors and 20 mD (HCD) mass tolerance for fragment ions. Carbamidomethylation of cysteine residues and TMT modification of lysine residues were set as fixed modifications and methionine oxidation, and N-terminal acetylation of proteins and TMT modification of peptide N-termini were set as variable modifications. […]
(§5) Nat Biotech 29, 255-265 (2011). this measure is referred to as ion area Savitski, M. M. et al. Delayed Fragmentation and Optimized Isolation Width Settings for Improvement of Protein Identification and Accuracy of Isobaric Mass Tag Quantification on Orbitrap-Type Mass Spectrometers. […]

Test [2] deals with T2, AAK1 (Homo sapiens, UniProt Q2M2I8).
T2 construct: endogenous in cells; host or cells: THP-1
Nature of the test: Expression proteomics in THP-1 cells: AAK1 protein level. The class given is cell-based. Conditions: AAK1, THP-1 cells. The method, then: as §1, §2, §3, §4, §5

The record followed here is patent US20190210996A1, “NOVEL COMPOUNDS” (GLAXOSMITHKLINE INTELLECTUAL PROPERTY DEVELOPMENT LIMITED, priority 2016, published 2019).

Molecules are shown by their SMILES.

T1 sequence (P00519 whole entry): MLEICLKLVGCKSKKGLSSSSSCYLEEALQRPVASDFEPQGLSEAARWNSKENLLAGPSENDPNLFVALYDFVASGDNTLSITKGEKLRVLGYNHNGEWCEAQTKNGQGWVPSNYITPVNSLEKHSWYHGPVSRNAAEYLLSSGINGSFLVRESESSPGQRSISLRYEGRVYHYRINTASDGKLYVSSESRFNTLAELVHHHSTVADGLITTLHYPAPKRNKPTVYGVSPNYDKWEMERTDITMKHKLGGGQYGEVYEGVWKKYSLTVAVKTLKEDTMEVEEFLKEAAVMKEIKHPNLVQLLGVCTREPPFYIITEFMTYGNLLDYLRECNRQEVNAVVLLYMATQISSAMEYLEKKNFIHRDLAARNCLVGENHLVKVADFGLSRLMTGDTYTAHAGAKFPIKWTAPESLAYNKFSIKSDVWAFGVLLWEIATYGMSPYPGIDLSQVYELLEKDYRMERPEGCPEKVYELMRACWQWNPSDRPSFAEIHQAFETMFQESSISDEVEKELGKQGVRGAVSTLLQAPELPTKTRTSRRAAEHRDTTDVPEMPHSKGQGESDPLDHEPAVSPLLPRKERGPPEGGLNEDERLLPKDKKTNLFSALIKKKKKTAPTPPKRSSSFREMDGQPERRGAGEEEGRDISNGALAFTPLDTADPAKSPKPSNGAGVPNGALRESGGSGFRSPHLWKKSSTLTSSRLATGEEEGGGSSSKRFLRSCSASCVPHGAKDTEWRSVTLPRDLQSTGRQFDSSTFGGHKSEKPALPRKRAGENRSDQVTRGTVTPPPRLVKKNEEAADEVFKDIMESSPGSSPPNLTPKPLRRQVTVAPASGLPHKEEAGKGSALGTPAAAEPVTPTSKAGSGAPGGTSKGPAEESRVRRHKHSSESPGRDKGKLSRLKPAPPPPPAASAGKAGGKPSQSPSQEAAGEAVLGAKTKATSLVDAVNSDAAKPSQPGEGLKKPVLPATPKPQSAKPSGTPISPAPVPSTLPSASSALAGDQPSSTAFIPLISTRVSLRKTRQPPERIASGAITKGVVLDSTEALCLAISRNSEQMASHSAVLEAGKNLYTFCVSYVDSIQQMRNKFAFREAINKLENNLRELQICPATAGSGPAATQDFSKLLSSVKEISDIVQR
T2 sequence (Q2M2I8 whole entry): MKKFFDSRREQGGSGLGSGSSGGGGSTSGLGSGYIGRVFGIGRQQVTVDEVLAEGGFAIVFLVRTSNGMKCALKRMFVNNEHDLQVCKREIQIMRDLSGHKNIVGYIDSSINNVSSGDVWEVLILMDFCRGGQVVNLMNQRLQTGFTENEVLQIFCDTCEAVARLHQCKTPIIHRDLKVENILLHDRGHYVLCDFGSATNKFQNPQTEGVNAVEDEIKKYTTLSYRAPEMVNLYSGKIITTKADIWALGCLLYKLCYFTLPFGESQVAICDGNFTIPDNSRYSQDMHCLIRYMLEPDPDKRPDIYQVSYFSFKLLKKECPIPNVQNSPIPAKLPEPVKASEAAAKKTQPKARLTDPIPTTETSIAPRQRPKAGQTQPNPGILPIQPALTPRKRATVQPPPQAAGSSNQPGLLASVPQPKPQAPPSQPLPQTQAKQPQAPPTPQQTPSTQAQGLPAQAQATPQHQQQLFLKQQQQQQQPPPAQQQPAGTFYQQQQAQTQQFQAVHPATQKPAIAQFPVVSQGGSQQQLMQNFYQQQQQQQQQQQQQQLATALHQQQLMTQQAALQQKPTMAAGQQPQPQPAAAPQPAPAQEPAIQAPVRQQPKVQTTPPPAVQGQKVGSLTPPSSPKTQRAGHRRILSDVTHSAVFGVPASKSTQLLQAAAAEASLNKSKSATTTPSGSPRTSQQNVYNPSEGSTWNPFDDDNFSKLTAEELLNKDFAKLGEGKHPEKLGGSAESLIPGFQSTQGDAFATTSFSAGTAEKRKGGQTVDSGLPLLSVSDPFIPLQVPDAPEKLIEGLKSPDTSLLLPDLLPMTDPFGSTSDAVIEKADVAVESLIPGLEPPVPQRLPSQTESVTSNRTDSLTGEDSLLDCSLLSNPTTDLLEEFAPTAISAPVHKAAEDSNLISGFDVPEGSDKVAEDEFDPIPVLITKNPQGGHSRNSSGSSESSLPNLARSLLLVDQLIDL

Turning to `CNC(=O)c1ccccc1Nc1nc(Nc2ccc(N3CCN(CCOCCOCCOCCOCC(=O)Nc4cccc5c4CN(C4CCC(=O)NC4=O)C5=O)CC3)cc2)ncc1Cl.O=CO` (centres unmarked) [CEREBLON_PROTAC, 14-(4-(4-((5-Chloro-4-((2-(methylcarbamoyl)phenyl)amino)pyrimidin-2-yl)amino)phenyl)piperazin-1-yl)-N-(2-(2,6-dioxopiperidin-3-yl)-1-oxoisoindolin-4-yl)-3,6,9,12-tetraoxatetradecan-1-amide formate], the “log2 rel. fc. to vehicle control” value in test [1] (24 h 0.1 μM, n = 1) is given as −0.72; in test [1] (24 h 0.1 μM, n = 2) it was −0.70; in test [1] (24 h 1 μM, n = 1) it was −1.43; in test [1] (24 h 1 μM, n = 2), −1.63; in test [2] (24 h 0.1 μM, n = 1), −2.34; in test [2] (24 h 0.1 μM, n = 2), −2.12. The “log2 rel. fc. to vehicle control” value in test [2] (24 h 1 μM, n = 1) was −2.42; in test [2] (24 h 1 μM, n = 2), −2.56.
